Consider 1 compound from patent publication US7498323B2, “Spiro-piperidine compounds and medicinal use thereof” (Ono Pharmaceuticals Co., Ltd., priority 2003, dated 2009).

For this assay, the target named is Human CCR2 (Homo sapiens, UniProt P41597). The note with it: at 10 μM; human CCR2-expressing cells (THP-1); human MCP-1 30 nM; Ca2+ transient increase.
Chain of Human CCR2 (P41597 1-360 isoform P41597-2): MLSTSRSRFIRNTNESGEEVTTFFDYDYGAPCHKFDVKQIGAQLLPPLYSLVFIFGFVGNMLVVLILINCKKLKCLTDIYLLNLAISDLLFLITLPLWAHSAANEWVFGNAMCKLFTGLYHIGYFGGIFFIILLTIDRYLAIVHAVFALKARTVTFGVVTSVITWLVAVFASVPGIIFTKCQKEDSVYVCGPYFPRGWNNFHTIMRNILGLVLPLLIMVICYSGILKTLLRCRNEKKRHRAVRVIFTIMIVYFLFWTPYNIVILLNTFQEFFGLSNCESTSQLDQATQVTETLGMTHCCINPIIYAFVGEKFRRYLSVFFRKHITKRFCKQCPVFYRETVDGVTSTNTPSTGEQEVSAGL

Description: (5) Inhibition test on the binding of MCP-1 to CCR2 (activity of MCP-1 to induce transient increase of Ca ion).
Then, 4-fold to 8-fold 1×Hanks/HEPES (20 mM; pH 7.4)/Probenecid (2.5 mM) was added thereto, followed by further incubation at 37° C. for 30 minutes under shading. After the cells were washed with 1×Hanks/HEPES (20 mM; pH 7.4)/Probenecid (2.5 mM) solution, the cells were suspended again by the same solution to give a density of 2.0×10^6 cells/ml and added to a 96-well plate at 100 μl/well. Each of the test compounds was added, and 3 minutes thereafter, a recombinant human MCP-1 (PeproTach) diluted with 1×Hanks/HEPES (20 mM; pH 7.4)/Probenecid (2.5 mM) was added thereto to a final concentration of 30 nM. Transient increase in the intracellular Ca^2+ concentration induced by the human MCP-1 was measured using a Ca^2+ detector for 96 well use (Hamamatsu Photonics), and inhibition ratio (%) of the test compound was calculated by the following calculation formula. Inhibition ratio=(Ec−Ea)/Ec×100 • Ec: measured value of Ca^2+ transient increase by MCP-1 • Ea: measured value of Ca^2+ transient increase by MCP-1 when a test compound was added.

On to `CCCN1C(=O)N(CCCNC(=O)OCc2ccccc2)CCC12CCN(CCc1ccccc1)CC2` [Example 37, phenylmethyl{3-[2-oxo-9-(2-phenylethyl)-1-propyl-1,3,9-triazaspiro[5.5]undeca-3-yl]propyl}carbamate], for which the inhibition ratio is listed as not below 50%.
